Results on 14 compounds are retold here after patent publication US20080102497A1, “ENZYMATIC HYDROLYSIS OF STARCH” (priority 2006, published 2008).

The target in one assay is β-amylase from barley (Hordeum vulgare, UniProt P16098). Put plainly: hydrolysis of cooked dent corn starch with other additives. In kind it is biochemical. Particulars: for effect on rate of enzymatic hydrolysis (in words): 10 mM additive, cooked dent corn starch; for Relative Activity: cooked dent corn starch 0.5%, pH 5.2, 37° C., 10 min. On the procedure:
[…] The separate reaction mixtures were incubated at 37° C. for 10 minutes. The control reaction mixture contained enzyme, buffer, and starch but no additive. The starch hydrolysis reaction was stopped by combining the reaction mixture with a solution containing DNSA and heating for 30 min at 85° C. The absorbance of the control and test samples was measured at […] to monitor the amount of reducing sugar in each sample.

Assay [1] concerns the target α-amylase from Bacillus licheniformis (Bacillus licheniformis, UniProt P06278). The description is as above. In kind it is biochemical. Particulars: for effect on rate of enzymatic hydrolysis (in words): 10 mM additive, cooked dent corn starch; for Relative Activity: cooked dent corn starch 0.5%, pH 5.2, 37° C., 10 min. On the procedure:
The α-amylase from Bacillus licheniformis was added to a sodium acetate buffer solution, pH 5.2, […], di-sodium EDTA, NH4^+, Sr^++, Na^+, K^+, Al^+++, or Ba^++ and 0.5% by weight cooked dent corn starch. The separate reaction mixtures were incubated at 37° C. for 10 minutes. The control reaction mixture contained enzyme, buffer, and starch but no additive. The starch hydrolysis reaction was stopped by combining the reaction mixture with a solution containing DNSA and heating for 30 min at 85° C. The absorbance of the control and test samples was measured at 562 nm to monitor the amount of reducing sugar in each sample.

For assay [2], the target named is glucoamylase from Aspergillus Niger (Aspergillus niger, UniProt P69328). The assay is described as above. Particulars: for effect on rate of enzymatic hydrolysis (in words): 10 mM additive, cooked dent corn starch; for Relative Activity: cooked dent corn starch 0.5%, pH 5.2, 37° C., 10 min. The class given is biochemical. On the procedure: The glucoamylase from Aspergillus Niger was added to a sodium acetate buffer solution, pH 5.2, comprising no metal or 10 mM Fe^++, Mg^++, Li^+, Zn^++, Cu^++, Ca^++, di-sodium EDTA, NH4^+, Sr^++, Na^+, K^+, Al^+++, or Ba^++ and 0.5% by weight cooked dent corn starch. The separate reaction mixtures were incubated at 37° C. for 10 minutes. The control reaction mixture contained enzyme, buffer, and starch but no additive. The starch hydrolysis reaction was stopped by combining the reaction mixture with a solution containing DNSA and heating for 30 min at 85° C. The absorbance of the control and test samples was measured at 562 nm to monitor the amount of reducing sugar in each sample.

The test system of assay [3] is enzyme mixture of purified glucoamylase from mushroom and purified α-amylase from barley. Put plainly: hydrolysis of raw corn starch by enzyme mixture, reducing sugar by DNSA. The class given is biochemical. Particulars: for Relative Activity: 10 mM additive, raw corn starch, pH 5.3, 37° C., 20 min; for effect on hydrolysis of raw corn starch (in words): summary of Table 2. The procedure:
Enzyme mixture was also pre-incubated with 10 mM Fe^++, Cu^++, Ca^++, Mg^++, or disodium ethylenediamine-tetraacetic acid (EDTA). Thereafter, 40 μl of each pre-incubation solution was added to 15 mg raw corn starch, and the reaction mixture incubated at 37° C. for 20 minutes. The control reaction mixture contained substrate, enzyme, and buffer but no additional metal ions. The starch hydrolysis reaction was stopped by combining the reaction mixture with a solution containing 3,5 dinitrosalicylic acid (DNSA) and heating for 30 min at 85° C. The absorbance of the control and test samples was measured at 562 nm to monitor the amount of reducing sugar in each sample.

The subject of assay [4] is glucoamylase from Rhizopus sp. As to conditions: 1.0 mM manganese salt, raw corn starch, pH 5.3, 37° C. The procedure:
An enzyme solution of the glucoamylase from Rhizopus sp. Was prepared in a sodium acetate buffer, pH 5.3, comprising 1.0 mM manganese chloride, manganese acetate, or manganese sulfate. Thereafter, 40 μl of each enzyme solution was added to 15 mg raw corn starch and the reaction mixtures incubated at 37° C. for 5, 10, 15, 20, or 25 minutes. The starch hydrolysis reaction was stopped by combining the reaction mixture with a solution containing DNSA and heating for 30 min at 85° C. The absorbance of the control and test samples was measured at 562 nm to monitor the amount of reducing sugar in each sample.

Values joined by “and” are separate entries in the source; they are usually repeats but may differ in a detail not shown here. Equal entries are not always repeated. Where two headings read alike, the source gives them in different places.

glucoamylase from Aspergillus Niger, sequence (P69328 25-640): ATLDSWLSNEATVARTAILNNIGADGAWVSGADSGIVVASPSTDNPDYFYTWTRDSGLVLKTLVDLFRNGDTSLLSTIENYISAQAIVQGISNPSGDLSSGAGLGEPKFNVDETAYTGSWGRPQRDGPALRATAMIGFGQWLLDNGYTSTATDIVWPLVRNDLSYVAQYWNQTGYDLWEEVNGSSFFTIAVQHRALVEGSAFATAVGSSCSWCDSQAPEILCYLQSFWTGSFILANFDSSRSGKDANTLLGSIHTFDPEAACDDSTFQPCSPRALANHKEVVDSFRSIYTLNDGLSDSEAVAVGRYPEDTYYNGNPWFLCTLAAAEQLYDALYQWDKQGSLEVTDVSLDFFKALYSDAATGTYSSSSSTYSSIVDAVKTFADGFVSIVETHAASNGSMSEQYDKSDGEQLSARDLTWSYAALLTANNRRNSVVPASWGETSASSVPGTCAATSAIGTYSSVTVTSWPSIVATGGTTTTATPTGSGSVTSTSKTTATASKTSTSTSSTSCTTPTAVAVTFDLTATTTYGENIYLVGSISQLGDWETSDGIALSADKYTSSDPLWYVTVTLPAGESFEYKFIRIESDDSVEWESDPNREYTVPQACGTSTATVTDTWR
β-amylase from barley, sequence (P16098 whole entry): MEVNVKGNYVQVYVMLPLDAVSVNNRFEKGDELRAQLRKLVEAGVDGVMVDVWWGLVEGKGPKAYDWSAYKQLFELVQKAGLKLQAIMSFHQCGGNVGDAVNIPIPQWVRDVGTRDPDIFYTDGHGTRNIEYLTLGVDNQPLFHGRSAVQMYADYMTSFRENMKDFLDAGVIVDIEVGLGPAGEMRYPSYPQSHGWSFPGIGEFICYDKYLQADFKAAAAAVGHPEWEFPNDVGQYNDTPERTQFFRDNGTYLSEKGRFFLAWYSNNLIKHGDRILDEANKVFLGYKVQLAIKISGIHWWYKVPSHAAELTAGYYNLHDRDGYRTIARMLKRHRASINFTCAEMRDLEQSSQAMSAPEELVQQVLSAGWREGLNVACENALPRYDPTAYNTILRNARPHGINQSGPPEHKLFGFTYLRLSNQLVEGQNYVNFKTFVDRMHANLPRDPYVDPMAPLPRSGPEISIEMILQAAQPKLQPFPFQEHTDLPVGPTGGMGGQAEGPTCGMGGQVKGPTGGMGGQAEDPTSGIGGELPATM
α-amylase from Bacillus licheniformis, sequence (P06278 30-512): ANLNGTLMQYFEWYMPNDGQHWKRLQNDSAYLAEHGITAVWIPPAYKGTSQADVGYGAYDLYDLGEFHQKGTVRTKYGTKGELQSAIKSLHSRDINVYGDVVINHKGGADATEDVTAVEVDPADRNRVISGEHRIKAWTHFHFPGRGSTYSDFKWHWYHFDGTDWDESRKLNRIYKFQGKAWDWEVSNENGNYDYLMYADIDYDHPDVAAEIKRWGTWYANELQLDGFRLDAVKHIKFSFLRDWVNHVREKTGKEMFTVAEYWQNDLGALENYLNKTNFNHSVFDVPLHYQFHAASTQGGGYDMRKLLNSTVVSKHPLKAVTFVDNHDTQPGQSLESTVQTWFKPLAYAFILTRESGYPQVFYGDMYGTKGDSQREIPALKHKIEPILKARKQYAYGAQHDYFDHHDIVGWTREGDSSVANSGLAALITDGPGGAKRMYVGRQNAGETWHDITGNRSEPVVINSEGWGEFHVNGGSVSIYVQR

Regarding `[Ba+2]` [Ba^++, barium ion], the “effect on rate of enzymatic hydrolysis (in words)” value (“effect on rate” below) on β-amylase from barley is given as “increase the rate of enzymatic hydrolysis”; in assay [1], “does not increase the enzymatic rate of hydrolysis”; in assay [2], “do not significantly increase the rate of enzymatic hydrolysis”. The “Relative Activity” value came out at 114.6% at β-amylase from barley (Additive (10 mM)), 98.1% in assay [1] (Additive (10 mM)) and 99.3% in assay [2] (Additive (10 mM)).
In the case of `[Cu+2]` [Cu^++], the “effect on rate” value at β-amylase from barley is recorded as “do not significantly increase the rate of enzymatic hydrolysis”; in assay [1], “does not increase the enzymatic rate of hydrolysis”; in assay [2], “do not significantly increase the rate of enzymatic hydrolysis”. Moreover, the “Relative Activity” value is listed as 6.7% at β-amylase from barley (Additive (10 mM)), 47.5% in assay [3], 30.0% in assay [1] (Additive (10 mM)) and 33.9% in assay [2] (Additive (10 mM)). For the same compound, the “effect on hydrolysis of raw corn starch (in words)” value (“effect on hydrolysis” below) in assay [3] is “do not have a similar effect”.
Regarding `[Ca+2]` [Ca^++, calcium ions], the “effect on rate” value (on β-amylase from barley; in assay [2]) was “increase the rate of enzymatic hydrolysis” in each case. Moreover, the “Relative Activity” value is 114.1% and 127.2% and 121.2% at β-amylase from barley (Additive (10 mM)); 111.8% and 105.8% and 105.0% at β-amylase from barley (additive 1 mM); 97.3% in assay [3]; 119.1% and 94.8% and 99.4% and 90.0% in assay [1] (Additive (10 mM)); 83.6% in assay [1] (additive 1 mM); 103.8% and 104.4% and 97.4% in assay [2] (Additive (10 mM)). In addition, the “Relative Activity” value in assay [2] (additive 1 mM) was 108.0%. For the same compound, the “effect on hydrolysis” value in assay [3] is reported as “do not have a similar effect”.
For `O=C(O)CN(CCN(CC(=O)O)CC(=O)O)CC(=O)O.[Na].[Na]` [Disodium EDTA, disodium ethylenediamine-tetraacetic acid], the results for the “effect on rate” value (at β-amylase from barley; in assay [1]; in assay [2]) were “do not significantly increase the rate of enzymatic hydrolysis”, “does not increase the enzymatic rate of hydrolysis” and “do not significantly increase the rate of enzymatic hydrolysis”, respectively. Further, the “Relative Activity” value at β-amylase from barley (Additive (10 mM)) stood at 100.4%; in assay [3], 88.8%; in assay [1] (Additive (10 mM)) it was 103.8%; in assay [2] (Additive (10 mM)), 57.6%. Moreover, the “effect on hydrolysis” value in assay [3] is given as “do not have a similar effect”.
On to `[Li+]` [Li^+, lithium ion], for which the “effect on rate” value is “do not significantly increase the rate of enzymatic hydrolysis” on β-amylase from barley, “does not increase the enzymatic rate of hydrolysis” in assay [1] and “increase the rate of enzymatic hydrolysis” in assay [2]. The “Relative Activity” value at β-amylase from barley (Additive (10 mM)) came out at 101.6%; in assay [1] (Additive (10 mM)), 89.2%; in assay [2] (Additive (10 mM)), 118.1%.
In the case of manganese acetate [MnOAc], the “% Conversion” value in assay [4] (5 minutes) is recorded as 0.46%; in assay [4] (10 minutes), 0.74%; in assay [4] (15 minutes) it was 1.04%; in assay [4] (20 minutes), 1.28%; in assay [4] (25 minutes) it was 1.50%; in assay [4] (time 0), 0%.
For the compound `[Na+]` [Na^+], the figures for the “effect on rate” value (at β-amylase from barley; in assay [1]; in assay [2]) were “do not significantly increase the rate of enzymatic hydrolysis”, “does not increase the enzymatic rate of hydrolysis” and “do not significantly increase the rate of enzymatic hydrolysis”, respectively. In addition, the “Relative Activity” value worked out at 95.1% at β-amylase from barley (Additive (10 mM)), 84.2% in assay [1] (Additive (10 mM)) and 97.3% in assay [2] (Additive (10 mM)).
As for `O=S(=O)([O-])[O-].[Mn+2]` [MnSO4, manganese sulfate], the “% Conversion” value amounted to 0.50% in assay [4] (5 minutes); 0.87% in assay [4] (10 minutes); 1.12% in assay [4] (15 minutes); 1.30% in assay [4] (20 minutes); 1.58% in assay [4] (25 minutes); 0% in assay [4] (time 0).
Regarding `[Sr+2]` [Sr^++, strontium ion], the entries for the “effect on rate” value (at β-amylase from barley; in assay [1]; in assay [2]) were “increase the rate of enzymatic hydrolysis”, “does not increase the enzymatic rate of hydrolysis” and “do not significantly increase the rate of enzymatic hydrolysis”, respectively. Besides, the “Relative Activity” value on β-amylase from barley (Additive (10 mM)) is 114.1%; in assay [1] (Additive (10 mM)) it was 87.2%; in assay [2] (Additive (10 mM)), 93.8%.
For the compound `[K+]` [K^+, potassium ion], the “effect on rate” value on β-amylase from barley is “do not significantly increase the rate of enzymatic hydrolysis”; in assay [1] it was “does not increase the enzymatic rate of hydrolysis”; in assay [2], “increase the rate of enzymatic hydrolysis”. Further, the “Relative Activity” value worked out at 101.1% on β-amylase from barley (Additive (10 mM)), 82.8% in assay [1] (Additive (10 mM)) and 113.3% in assay [2] (Additive (10 mM)).
Consider `N` [NH4^+], for which the “effect on rate” value on β-amylase from barley is given as “do not significantly increase the rate of enzymatic hydrolysis”; in assay [1], “does not increase the enzymatic rate of hydrolysis”; in assay [2], “do not significantly increase the rate of enzymatic hydrolysis”. Also, the figures for the “Relative Activity” value (at β-amylase from barley (Additive (10 mM)); in assay [1] (Additive (10 mM)); in assay [2] (Additive (10 mM))) were 95.1%, 86.4% and 98.3%, respectively.
Consider `[Zn+2]` [Zn^++], for which the “effect on rate” value on β-amylase from barley is on record as “do not significantly increase the rate of enzymatic hydrolysis”; in assay [1], “does not increase the enzymatic rate of hydrolysis”; in assay [2] it was “do not significantly increase the rate of enzymatic hydrolysis”. For the same compound, the “Relative Activity” value at β-amylase from barley (Additive (10 mM)) worked out at 70.6%; in assay [1] (Additive (10 mM)), 100.2%; in assay [2] (Additive (10 mM)) it was 57.3%.
For the compound `[Al+3]` [Al^+++], the figures for the “effect on rate” value (on β-amylase from barley; in assay [1]; in assay [2]) were “do not significantly increase the rate of enzymatic hydrolysis”, “does not increase the enzymatic rate of hydrolysis” and “do not significantly increase the rate of enzymatic hydrolysis”, respectively. Also, the “Relative Activity” value turned out to be 77.5% at β-amylase from barley (Additive (10 mM)), 95.1% in assay [1] (Additive (10 mM)) and 96.2% in assay [2] (Additive (10 mM)).
Turning to manganese chloride [MnCl2], the “% Conversion” value in assay [4] (5 minutes) came to 0.44%; in assay [4] (10 minutes), 0.74%; in assay [4] (15 minutes) it was 1.01%; in assay [4] (20 minutes) it was 1.22%; in assay [4] (25 minutes) it was 1.70%; in assay [4] (time 0) it was 0%.
